Here are results for 21 compounds from patent US8633251B2, “Derivatives of aminoalkanols, method of obtaining of aminoalkanols and their use” (Uniwersytet Jagiellonski, priority 2008, dated 2014).

Counter-ions that a name gives are not always drawn.

One data set has as its system neurotoxicity (rotarod). The data set can be described thus: Neurotoxicity test (TOX), rotarod, mice. The class given is in vivo. The procedure: (§1) In order to define anticonvulsant activity, screening tests were performed, using animal models of seizures. […] Each substance (after dissolving in methylcellulose) was normally tested in doses 30, 100, and 300 mg/kg body weight (b.w.) (mice) or in 30 and 50 mg/kg b.w. (rats) in two possible routes of administration: intraperitoneal (i.p.) or oral (p.o.). Appropriate tests were performed 0.5 and 4 h after administration of the compound. […] (mice) the tests were also performed in doses 10 and 3 mg/kg b.w.
It is performed with use of rotarod test. The animal is placed on a plastic rod (1 inch in diameter), rotating 6 rpm. The rod is placed on a level discouraging the animal to jump off. […] Neurotoxicity is stated if the animal cannot stay on the rod for 1 min. in any of 3 trials. Normally the test is performed in dose 30 mg/kg b.w. in 4 mice (0.5 h) and in 2 mice (4 h), in the dose 100 mg/kg b.w. in 8 mice (0.5 h) and in 4 mice (4 h) and in the dose 300 mg/kg b.w. in 4 mice (0.5 h) and 2 mice (4 h).

The test system of data set [1] is maximal electroshock seizures. Briefly: Maximum Electroshock Seizure (MES) test, mice. The class given is in vivo. Particulars: for MES, No. of protected animals/No. of used animals: mice. As to the method:
as §1
Maximum Electroshock Seizure (MES) test is an electric test, verifying activity towards generalized tonic-clonic seizures (grand mal epilepsy). […] Its procedure consists in administration to an animal a mentioned dose, and after 0.5 or 4 h attaching corneal electrodes (after anesthetic eye-drops: 0.5% tetracaine hydrochloride in 0.9% NaCl) and turning on electric current (60 Hz, 0.2 s, 50 mA (mice) or 150 mA (rats)). […] Normally, in the dose 30 mg/kg b.w. the test is done in 1 mouse after 0.5 or 4 h, in the dose 100 mg/kg b.w.—in 3 mice, and in the dose 300 mg/kg b.w.—in 1 mouse.

[2] abbreviates: dose 100 mg/kg b.w., time 0.5 h.
Setting [3] is: mice, dose 30 mg/kg b.w., time 0.5 h.
Where [4] appears, read: mice, dose 100 mg/kg b.w., time 0.5 h.
Setting [5] is: mice, dose 300 mg/kg b.w., time 0.5 h.
The mark [6] stands for this setting: dose 300 mg/kg b.w., time 0.5 h.
The mark [7] stands for this setting: mice, dose 300 mg/kg b.w., 0.5 h.
The mark [8] stands for this setting: mice, dose 300 mg/kg b.w., time 4 h.
[9] abbreviates: mice, dose 10 mg/kg b.w., time 0.5 h.
Setting [10] is: mice, dose 100 mg/kg b.w., 0.5 h.
Where [11] appears, read: Mus musculus, 0.5 h, read-out: MES, No. of protected animals/No. of used animals.

On to `Cc1ccc(C)c(OCCNCC(C)O)c1` (stereo not drawn) [Compound 5, R,S-1N-[(2,5-dimethylphenoxy)ethyl]amino-2-propanol], for which the “TOX, No. of animals exhibiting motor impairment/no. of used animals” value in the data set on neurotoxicity (rotarod) (mouse, in vivo, 300 mg/kg) is reported as 4/4. Also, the “MES, No. of protected animals/No. of used animals” value in data set [1] (setting [2]) was 3/3.
Turning to `Cc1cc(C)c(OCCN[C@H](C)CO)c(C)c1` [Compound 43, R-(−)-2N-[(2.4.6-trimethylphenoxy)ethyl]amino-1-propanol], the figures for the “TOX, No. of animals exhibiting motor impairment/no. of used animals” value with neurotoxicity (rotarod) (setting [3]), with neurotoxicity (rotarod) (setting [4]) and in the data set with neurotoxicity (rotarod) (setting [5]) were 3/4, 8/8 and 4/4, respectively. The “MES, No. of protected animals/No. of used animals” value in data set [1] (setting [2]) is given as 3/3.
With `Cc1cccc(C)c1OCCNCC(O)c1ccccc1` (stereo not drawn) [Compound 19, R,S-2N-[(2,6-dimethylphenoxy)ethyl]amino-1-phenylethanol], the “TOX, No. of animals exhibiting motor impairment/no. of used animals” value in the data set with neurotoxicity (rotarod) (setting [3]) is recorded as 1/4; in the data set on neurotoxicity (rotarod) (setting [4]), 8/8; in the data set on neurotoxicity (rotarod) (setting [5]), 4/4. Further, the “MES, No. of protected animals/No. of used animals” value in data set [1] (dose 30 mg/kg b.w., time 0.5 h) is 1/1; in data set [1] (setting [2]) it was 3/3.
`Cc1ccc(C)c(OCCNC(C)CO)c1` (stereo not drawn) [Compound 6, R,S-2N-[(2,5-dimethylphenoxy)ethyl]amino-1-propanol]: in the data set with neurotoxicity (rotarod) (mouse, in vivo, 300 mg/kg), the “TOX, No. of animals exhibiting motor impairment/no. of used animals” value is listed as 4/4. For the same compound, the “MES, No. of protected animals/No. of used animals” value is reported as 3/3 in data set [1] (setting [2]) and 1/1 in data set [1] (setting [6]).
As for `Cc1cccc(Cl)c1OCC(=O)N[C@@H](C)CO` [Compound 71, S-(+)-2N-[(2-chlor-6-methylphenoxy)acetyl]amino-1-propanol], the “TOX, No. of animals exhibiting motor impairment/no. of used animals” value in the data set with neurotoxicity (rotarod) (setting [7]) is given as 4/4. For the same compound, the “MES, No. of protected animals/No. of used animals” value in data set [1] (dose 300 mg/kg b.w., 0.5 h) is on record as 1/1.
Consider `Cc1cccc(C)c1OCCN[C@H](C)CO` [Compound 12a, R-(−)-2N-[(2,6-dimethylphenoxy)ethyl]amino-1-propanol hydrochloride], for which the “TOX, No. of animals exhibiting motor impairment/no. of used animals” value in the data set with neurotoxicity (rotarod) (setting [8]) is reported as 1/1. Moreover, the “MES, No. of protected animals/No. of used animals” value in data set [1] (dose 100 mg/kg b.w., time 0.5 h, hydrochloride, 100 mg/kg) is reported as 3/3.
For `Cc1cccc(C)c1OCCN[C@@H](C)CO.Cl` [Compound 13a, S-(+)-2N-[(2,6-dimethylphenoxy)ethyl]amino-1-propanol hydrochloride], the “TOX, No. of animals exhibiting motor impairment/no. of used animals” value is on record as 8/8 with neurotoxicity (rotarod) (mouse, in vivo, 100 mg/kg) and 4/4 in the data set on neurotoxicity (rotarod) (mouse, in vivo, 300 mg/kg). Besides, the “MES, No. of protected animals/No. of used animals” value in data set [1] (dose 30 mg/kg b.w., time 0.5 h) is given as 1/1; in data set [1] (setting [2]), 3/3.
For the compound `CC[C@@H](CO)NCCOc1c(C)cccc1Cl.Cl` [Compound 28a, S-(+)-2N-[(2-chlor-6-methylphenoxy)ethyl]amino-1-butanol hydrochloride], the “TOX, No. of animals exhibiting motor impairment/no. of used animals” value in the data set on neurotoxicity (rotarod) (setting [4]) is reported as 5/8; in the data set on neurotoxicity (rotarod) (setting [5]), 4/4. Moreover, the “MES, No. of protected animals/No. of used animals” value in data set [1] (setting [2]) is listed as 1/1.
For `Cc1cc(C)c(OCCN[C@@H]2CCCC[C@H]2O)c(C)c1` (relative stereo) [Compound 44, D,L-trans-2N-[(2,4,6-trimethylphenoxy)ethyl]amino-1-cyclohexanol], the “TOX, No. of animals exhibiting motor impairment/no. of used animals” value is listed as 1/4 with neurotoxicity (rotarod) (setting [9]) and 8/8 in the data set on neurotoxicity (rotarod) (setting [4]). The “MES, No. of protected animals/No. of used animals” value in data set [1] (dose 10 mg/kg b.w., time 0.5 h) is listed as 1/4; in data set [1] (dose 30 mg/kg b.w., time 0.5 h), 1/1.
For the compound `Cc1cccc(OCCCNCC(O)c2ccccc2)c1C` (racemic) [Compound 49, R,S-2N-[(2,3-dimethylphenoxy)propyl]amino-1-phenylethanol], the “TOX, No. of animals exhibiting motor impairment/no. of used animals” value in the data set on neurotoxicity (rotarod) (setting [3]) is given as 1/4; in the data set on neurotoxicity (rotarod) (mice, dose 30 mg/kg b.w., time 4 h) it was 1/2; in the data set with neurotoxicity (rotarod) (setting [4]) it was 6/8; in the data set on neurotoxicity (rotarod) (mice, dose 100 mg/kg b.w., time 4 h), 3/4; in the data set on neurotoxicity (rotarod) (setting [5]) it was 4/4; in the data set with neurotoxicity (rotarod) (setting [8]), 2/2. The “MES, No. of protected animals/No. of used animals” value in data set [1] (setting [6]) is on record as 1/1.
For `CCC(CO)NCCOc1cc(C)cc(C)c1C` (stereo not drawn) [Compound 39, R,S-2N-[(2,3,5-trimethylphenoxy)ethyl]amino-1-butanol], the “TOX, No. of animals exhibiting motor impairment/no. of used animals” value was 7/8 in the data set with neurotoxicity (rotarod) (mouse, in vivo, 100 mg/kg) and 4/4 with neurotoxicity (rotarod) (mouse, in vivo, 300 mg/kg). Also, the “MES, No. of protected animals/No. of used animals” value in data set [1] (dose 30 mg/kg b.w., time 0.5 h) was 1/1; in data set [1] (setting [2]), 3/3; in data set [1] (dose 100 mg/kg b.w., time 4 h) it was 1/3.
As to `Cc1cccc(Cl)c1OCCN[C@@H]1CCCC[C@H]1O` (relative stereo) [Compound 30, D,L-trans-2N-[(2-chlor-6-methylphenoxy)ethyl]amino-1-cyclohexanol], the “TOX, No. of animals exhibiting motor impairment/no. of used animals” value in the data set with neurotoxicity (rotarod) (setting [4]) is 8/8; in the data set on neurotoxicity (rotarod) (setting [5]), 4/4. Besides, the “MES, No. of protected animals/No. of used animals” value in data set [1] (dose 30 mg/kg b.w., time 0.5 h) is 1/1; in data set [1] (setting [2]), 1/1.
For the compound `CCC(O)CNCCOc1cc(C)ccc1C` (stereo not drawn) [Compound 7, R,S-1N-[(2,5-dimethylphenoxy)ethyl]amino-2-butanol], the “TOX, No. of animals exhibiting motor impairment/no. of used animals” value is 8/8 in the data set on neurotoxicity (rotarod) (mouse, in vivo, 100 mg/kg) and 4/4 with neurotoxicity (rotarod) (mouse, in vivo, 300 mg/kg). Besides, the “MES, No. of protected animals/No. of used animals” value in data set [1] (setting [2]) was 3/3; in data set [1] (setting [6]), 1/1.
For `CCC(CO)NCCCOc1cccc(C)c1C` (racemic) [Compound 48, R,S-2N-[(2,3-dimethylphenoxy)propyl]amino-1-butanol], the “TOX, No. of animals exhibiting motor impairment/no. of used animals” value was 8/8 in the data set with neurotoxicity (rotarod) (mouse, in vivo, 100 mg/kg) and 4/4 in the data set on neurotoxicity (rotarod) (mouse, in vivo, 300 mg/kg). Moreover, the “MES, No. of protected animals/No. of used animals” value in data set [1] (setting [2]) was 3/3.
On to `Cc1cccc(C)c1OCC(=O)NC(C)CO` (stereo not drawn) [Compound 60, R,S-2N-[(2,6-dimethylphenoxy)acetyl]amino-1-propanol], for which the “TOX, No. of animals exhibiting motor impairment/no. of used animals” value in the data set with neurotoxicity (rotarod) (setting [10]) is listed as 2/8; in the data set on neurotoxicity (rotarod) (mice, dose 100 mg/kg b.w., 4 h), 2/4; with neurotoxicity (rotarod) (setting [7]), 4/4. The “MES, No. of protected animals/No. of used animals” value in data set [1] (dose 300 mg/kg b.w., 0.5 h) was 1/1.
Turning to `Cc1cccc(C)c1OCCNC(C)(C)CCO` [Compound 15, 3N-[(2,6-dimethylphenoxy)ethyl]amino-3-methyl-1-butanol hydrochloride], the “TOX, No. of animals exhibiting motor impairment/no. of used animals” value was 7/8 in the data set on neurotoxicity (rotarod) (setting [9]), 4/4 with neurotoxicity (rotarod) (setting [3]) and 7/8 in the data set with neurotoxicity (rotarod) (setting [5]). The responders at 10 mg/kg in data set [1] (setting [11]) is 100%. Besides, the responders at 300 mg/kg in data set [1] (setting [11]) is 100%.
Take “R,S-1N-[(2-chlor-6-methylphenoxy)ethyl]amino-2-propanol [Compound 23]”: the “TOX, No. of animals exhibiting motor impairment/no. of used animals” value in the data set on neurotoxicity (rotarod) (setting [4]) was 7/8; in the data set on neurotoxicity (rotarod) (setting [5]), 4/4. The “MES, No. of protected animals/No. of used animals” value in data set [1] (dose 30 mg/kg b.w., time 0.5 h) was 1/1; in data set [1] (setting [2]) it was 1/1.
For `CCC(CO)NCCCOc1c(C)cccc1Cl.Cl` (racemic) [Compound 58, R,S-2N-[(2-chlor-6-methylphenoxy)propyl]amino-1-butanol hydrochloride], the “TOX, No. of animals exhibiting motor impairment/no. of used animals” value is 6/8 in the data set on neurotoxicity (rotarod) (setting [10]); 4/4 in the data set with neurotoxicity (rotarod) (setting [7]); 1/1 in the data set with neurotoxicity (rotarod) (mice, dose 300 mg/kg b.w., 4 h). Also, the “MES, No. of protected animals/No. of used animals” value in data set [1] (dose 100 mg/kg b.w., 0.5 h) is recorded as 2/3.
For the compound `Cc1cccc(Cl)c1OCC(=O)N[C@H](C)CO` [Compound 70, R-(−)-2N-[(2-chlor-6-methylphenoxy)acetyl]amino-1-propanol], in the data set on neurotoxicity (rotarod) (setting [7]), the “TOX, No. of animals exhibiting motor impairment/no. of used animals” value was 3/4. The “MES, No. of protected animals/No. of used animals” value in data set [1] (dose 300 mg/kg b.w., 0.5 h) was 1/1.
As for `Cc1cccc(C)c1OCCN[C@H](CO)C(C)C` [Compound 16, L-2N-[(2,6-dimethylphenoxy)ethyl]amino-3-methyl-1-butanol hydrochloride], the results for the “TOX, No. of animals exhibiting motor impairment/no. of used animals” value in the data set on neurotoxicity (rotarod) (setting [4]) and in the data set on neurotoxicity (rotarod) (setting [5]) were 7/8 and 4/4, respectively. For the same compound, the responders at 100 mg/kg in data set [1] (setting [11]) was 100%.
On to `Cc1cccc(C)c1OCCNCCCCCO` [Compound 17, 5N-[(2,6-dimethylphenoxy)ethyl]amino-1-pentanol hydrochloride], for which the “TOX, No. of animals exhibiting motor impairment/no. of used animals” value in the data set on neurotoxicity (rotarod) (setting [4]) is given as 7/8; in the data set on neurotoxicity (rotarod) (setting [5]), 4/4; in the data set on neurotoxicity (rotarod) (setting [8]) it was 1/1. Besides, the responders at 100 mg/kg in data set [1] (setting [11]) was 100%.
